Laboratory results as given in patent US20060083830A1, “Polylysine-containing food additive and acidic adjuvant” (priority 2004, published 2006).
“And” between values parts separate entries of the source, which are not always exact repeats. Equal values may be shown once.

Legend:
[1] = rats, two generations; Neda et al., 1999; cited from earlier work
Listeria monocytogenes = Listeria monocytogenes on boiled dumpling sheets with ε-polylysine in the dough, vacuum sealed, 10° C., CFU determination; conditions: for Log Reduction: vs control Group A

For “poly(imino(2-amino-1-oxo-1,6-hexanediyl)) [ε-PL]”, which “safety as a food additive” value [1] is on record?
The value was “no adverse reproductive toxological effects”.

And the CFU/dumpling (Listeria monocytogenes; 1000 ppm ε-PL, after 1 hour)?
The CFU/dumpling was 3.80E+02 CFU/dumpling and 4.00E+02 CFU/dumpling and 2.00E+02 CFU/dumpling.

And the “average Log Value” (Listeria monocytogenes; 1000 ppm ε-PL, after 1 hour)?
Its value is 2.15.

What about the “average of CFU/dumpling” value (Listeria monocytogenes; 1000 ppm ε-PL, after 1 hour) of the same substance?
Its value is 3.27E+02 CFU/dumpling.

And the “Log Reduction” value (Listeria monocytogenes; 1000 ppm ε-PL, after 1 hour)?
Its value is 0.89.

And the “average Log Value” (Listeria monocytogenes; 1000 ppm ε-PL, after 24 hours)?
Its value is 2.32.

And the “average of CFU/dumpling” value (Listeria monocytogenes; 1000 ppm ε-PL, after 24 hours)?
The value was 2.10E+02 CFU/dumpling.

And the “Log Reduction” value (Listeria monocytogenes; 1000 ppm ε-PL, after 24 hours)?
Its value is 2.42.

What about the post-lethality effect (Listeria monocytogenes; 2000 ppm and above, limits of detection 10 CFU/piece) of the same substance?
The post-lethality effect was “killed the Listeria down to the limits of detection”.

What about the CFU/dumpling (Listeria monocytogenes; 2000 ppm ε-PL, after 1 hour) of the same substance?
The CFU/dumpling was <1.00E+01 CFU/dumpling.

And the “average Log Value” (Listeria monocytogenes; 2000 ppm ε-PL, after 1 hour)?
The value was <1.00.

And the “average of CFU/dumpling” value (Listeria monocytogenes; 2000 ppm ε-PL, after 1 hour)?
Its value is <1.00E+01 CFU/dumpling.

What about the “Log Reduction” value (Listeria monocytogenes; 2000 ppm ε-PL, after 1 hour) of the same substance?
Its value is >2.41.

What about the CFU/dumpling (Listeria monocytogenes; 2000 ppm ε-PL, after 24 hours) of the same substance?
Its CFU/dumpling is <1.00E+01 CFU/dumpling.

And the “average Log Value” (Listeria monocytogenes; 2000 ppm ε-PL, after 24 hours)?
Its value is <1.00.

What about the “average of CFU/dumpling” value (Listeria monocytogenes; 2000 ppm ε-PL, after 24 hours) of the same substance?
The value was <1.00E+01 CFU/dumpling.

What about the “Log Reduction” value (Listeria monocytogenes; 2000 ppm ε-PL, after 24 hours) of the same substance?
Its value is >3.74.

And the CFU/dumpling (Listeria monocytogenes; 3000 ppm ε-PL, after 1 hour)?
Its CFU/dumpling is <1.00E+01 CFU/dumpling.

What about the “average Log Value” (Listeria monocytogenes; 3000 ppm ε-PL, after 1 hour) of the same substance?
Its value is <1.00.

What about the “average of CFU/dumpling” value (Listeria monocytogenes; 3000 ppm ε-PL, after 1 hour) of the same substance?
Its value is <1.00E+01 CFU/dumpling.

And the “Log Reduction” value (Listeria monocytogenes; 3000 ppm ε-PL, after 1 hour)?
The value was >2.41.

And the CFU/dumpling (Listeria monocytogenes; 3000 ppm ε-PL, after 24 hours)?
The CFU/dumpling was <1.00E+01 CFU/dumpling.

And the “average Log Value” (Listeria monocytogenes; 3000 ppm ε-PL, after 24 hours)?
The value was <1.00.

What about the “average of CFU/dumpling” value (Listeria monocytogenes; 3000 ppm ε-PL, after 24 hours) of the same substance?
The value was <1.00E+01 CFU/dumpling.

What about the “Log Reduction” value (Listeria monocytogenes; 3000 ppm ε-PL, after 24 hours) of the same substance?
Its value is >3.74.

What about the “replication of Listeria monocytogenes” value (Listeria monocytogenes; final concentration of 1000-3000 ppm in flour portion of dumpling) of the same substance?
Its value is “completely suppressed replication of Listeria monocytogenes”.
